Measured values as given in publication PMC7872314, “Modeling Bioavailable Concentrations in Zebrafish Cell Lines and Embryos Increases the Correlation of Toxicity Potencies across Test Systems” (Environmental Science & Technology, 2020).
Like-named read-outs stand apart in the source and are kept apart here.

Experiments:
[1] = tested on: ZFL (hepatocytes) cell line; experiment: cells; format: cell-based, zebrafish (Danio rerio); conditions: Danio rerio, Hepatocyte
[2] = tested on: ZFL (hepatocytes) cell line; experiment: cells; format: cell-based, zebrafish (Danio rerio); conditions: Danio rerio, Hepatocyte; remark: listed apart in the source
[3] = tested on: zebrafish cell lines vs zebrafish embryo; experiment: Potency ratios IC50;x/EC50;x (cytotoxicity assays vs mFET); design: species or system zebrafish (Danio rerio)
[4] = tested on: ZF4 (fibroblasts) cell line; experiment: CFDA endpoint of AB/CFDA/NR multiplex, membrane stability; format: cell-based, zebrafish (Danio rerio); conditions: Danio rerio, Fibroblast
[5] = tested on: ZFL (hepatocytes) cell line; experiment: cells; format: cell-based, zebrafish (Danio rerio); conditions: Danio rerio, Hepatocyte; remark: listed apart in the source
[6] = tested on: ZF4 (fibroblasts) cell line; experiment: MTS assay (MTS/BCA multiplex), NAD(P)H metabolism; format: cell-based, zebrafish (Danio rerio); conditions: Danio rerio, Fibroblast
[7] = tested on: ZF4 (fibroblasts) cell line; experiment: Neutral red, absorbance (NRa), AB/CFDA/NR multiplex, lysosome stability; format: cell-based, zebrafish (Danio rerio); conditions: Danio rerio, Fibroblast
zebrafish embryos [8] = tested on: zebrafish embryos; design: method as in earlier work; conditions: nominal, cited from earlier work
[9] = tested on: ZF4 (fibroblasts) cell line; experiment: BCA assay (MTS/BCA multiplex), protein amount; format: cell-based, zebrafish (Danio rerio); conditions: Danio rerio, Fibroblast
[10] = ref Comptox, PubChem or DrugBank; cited from earlier work
ZF4 and ZFL cell lines = experiment: Cytotoxicity assays, all endpoints, both cell lines (mean/range); format: cell-based, zebrafish (Danio rerio); conditions: 48 h, mean of all cytotoxicity endpoints (without LDH) in ZF4 and ZFL
[11] = tested on: ZFL (hepatocytes) cell line; experiment: cells; format: cell-based, zebrafish (Danio rerio); conditions: Danio rerio, Hepatocyte; remark: listed apart in the source
[12] = tested on: ZF4 (fibroblasts) cell line; experiment: Neutral red, fluorescence (NRf), AB/CFDA/NR multiplex, lysosome stability; format: cell-based, zebrafish (Danio rerio); conditions: Danio rerio, Fibroblast
zebrafish embryos [13] = experiment: animal or person; format: in vivo, zebrafish (Danio rerio); conditions: for EC50: Danio rerio
[14] = tested on: ZFL (hepatocytes) cell line; experiment: cells; format: cell-based, zebrafish (Danio rerio); conditions: Danio rerio, Hepatocyte; remark: listed apart in the source
[15] = tested on: ZF4 (fibroblasts) cell line; experiment: alamarBlue (AB) endpoint of AB/CFDA/NR multiplex, cellular respiration; format: cell-based, zebrafish (Danio rerio); conditions: Danio rerio, Fibroblast
[16] = tested on: ZF4 (fibroblasts) cell line; experiment: ATP assay (ATP/LDH multiplex), ATP metabolism; format: cell-based, zebrafish (Danio rerio); conditions: Danio rerio, Fibroblast
[17] = tested on: ZFL (hepatocytes) cell line; experiment: cells; format: cell-based, zebrafish (Danio rerio); conditions: Danio rerio, Hepatocyte; remark: listed apart in the source
[18] = tested on: ZFL (hepatocytes) cell line; experiment: cells; format: cell-based, zebrafish (Danio rerio); conditions: Danio rerio, Hepatocyte; remark: listed apart in the source

## Cc1cc(-n2c(=O)[nH]c(=O)n(C)c2=O)ccc1Oc1ccc(SC(F)(F)F)cc1 [Toltrazuril, toltrazuril]
[1]; CFDA - ZFL, log10 of IC50, read-out: LogIC50 (converted)
  IC50: 122 µM
[1]; CFDA - ZFL, read-out: IC50
  IC50: 122 µM
[1]; ZFL, 48 h exposure, nominal, log10, read-out: logIC50 (log10 IC50;nom) CFDA (converted)
  IC50: 123 µM
[1]; ZFL, 48 h exposure, nominal, read-out: IC50;nom CFDA
  IC50: 122 µM
[2]; AB - ZFL, log10 of IC50, read-out: LogIC50 (converted)
  IC50: 69.6 µM
[2]; AB - ZFL, read-out: IC50
  IC50: 69.6 µM
[2]; ZFL, 48 h exposure, nominal, log10, read-out: logIC50 (log10 IC50;nom) AB (converted)
  IC50: 69.2 µM
[2]; ZFL, 48 h exposure, nominal, read-out: IC50;nom AB
  IC50: 69.6 µM
[3]; ZF4 NRa endpoint vs embryo
  in vitro toxicity (IC50;free) higher than EC50;nom: 2 fold
[3]; median over cytotoxicity endpoints, nominal, 48 h cells / 48 hpf mFET
  potency ratio IC50;nom/EC50;nom (median): 6.54
[4]; CFDA - ZF4, log10 of IC50, read-out: LogIC50 (converted)
  IC50: 104 µM
[4]; CFDA - ZF4, read-out: IC50
  IC50: 104 µM
[4]; ZF4, 48 h exposure, nominal, log10, read-out: logIC50 (log10 IC50;nom) CFDA (converted)
  IC50: 105 µM
[4]; ZF4, 48 h exposure, nominal, read-out: IC50;nom CFDA
  IC50: 104 µM
[5]; NR-abs - ZFL, log10 of IC50, read-out: LogIC50 (converted)
  IC50: 84.7 µM
[5]; NR-abs - ZFL, read-out: IC50
  IC50: 84.7 µM
[5]; ZFL, 48 h exposure, nominal, log10, read-out: logIC50 (log10 IC50;nom) NRa (converted)
  IC50: 85.1 µM
[5]; ZFL, 48 h exposure, nominal, read-out: IC50;nom NRa
  IC50: 84.7 µM
[6]; MTS - ZF4, log10 of IC50, read-out: LogIC50 (converted)
  IC50: 175 µM
[6]; MTS - ZF4, read-out: IC50
  IC50: 175 µM
[6]; ZF4, 48 h exposure, nominal, log10, read-out: logIC50 (log10 IC50;nom) MTS (converted)
  IC50: 174 µM
[6]; ZF4, 48 h exposure, nominal, read-out: IC50;nom MTS
  IC50: 175 µM
[7]; NR-abs - ZF4, log10 of IC50, read-out: LogIC50 (converted)
  IC50: 49.4 µM
[7]; NR-abs - ZF4, read-out: IC50
  IC50: 49.4 µM
[7]; ZF4, 48 h exposure, nominal, log10, read-out: logIC50 (log10 IC50;nom) NRa (converted)
  IC50: 49 µM
[7]; ZF4, 48 h exposure, nominal, read-out: IC50;nom NRa
  IC50: 49.4 µM
[7]; ZF4 cell line, NRa endpoint, nominal, read-out: IC50;nom
  IC50: 21 µg/mL
Zebrafish embryos [8]; 144 hpf, converted
  EC50: 2.59 µM
Zebrafish embryos [8]; log10
  logEC50 144 hpf: -5.5874 M
[9]; BCA - ZF4, log10 of IC50, read-out: LogIC50 (converted)
  IC50: 141 µM
[9]; BCA - ZF4, read-out: IC50
  IC50: 141 µM
[9]; ZF4, 48 h exposure, nominal, log10, read-out: logIC50 (log10 IC50;nom) BCA (converted)
  IC50: 141 µM
[9]; ZF4, 48 h exposure, nominal, read-out: IC50;nom BCA
  IC50: 141 µM
[10]
  BCF: 14.3
  Physiological charge: 0
  Water Solubility: insoluble
  logKoa: 10.2
  logKow: 4.31
  pKa (Strongest Acidic): 6.47
  w_solubility (water solubility): 106 µM
ZF4 and ZFL cell lines; Danio rerio, log10, read-out: Mean log IC50nom (converted)
  IC50: 85.1 µM
ZF4 and ZFL cell lines; log10, listed as Tol
  Mean log IC50nom: -4.074 M
[11]; NR-fluo - ZFL, log10 of IC50, read-out: LogIC50 (converted)
  IC50: 78.7 µM
[11]; NR-fluo - ZFL, read-out: IC50
  IC50: 78.7 µM
[11]; ZFL, 48 h exposure, nominal, log10, read-out: logIC50 (log10 IC50;nom) NRf (converted)
  IC50: 79.4 µM
[11]; ZFL, 48 h exposure, nominal, read-out: IC50;nom NRf
  IC50: 78.7 µM
[12]; NR-fluo - ZF4, log10 of IC50, read-out: LogIC50 (converted)
  IC50: 81.3 µM
[12]; NR-fluo - ZF4, read-out: IC50
  IC50: 81.3 µM
[12]; ZF4, 48 h exposure, nominal, log10, read-out: logIC50 (log10 IC50;nom) NRf (converted)
  IC50: 81.3 µM
[12]; ZF4, 48 h exposure, nominal, read-out: IC50;nom NRf
  IC50: 81.3 µM
Zebrafish embryos [13]; 48 hpf time point less sensitive than 144 hpf
  difference in toxicity (EC50;nom) between 48 hpf and 144 hpf: marginally more toxic
Zebrafish embryos [13]; 48 hpf, nominal, log10, listed as Tol
  log EC50;nom (mFET): -4.897 M
Zebrafish embryos [13]; 48 hpf, nominal, log10, read-out: log EC50;nom (mFET) (converted)
  EC50: 12.6 µM
Zebrafish embryos [13]; 48 hpf, nominal, read-out: EC50;nom (embryo)
  EC50: 5.4 µg/mL
Zebrafish embryos [13]; read-out: EC50 48hpf
  EC50: 12.7 µM
Zebrafish embryos [13]; read-out: EC50;nom (mFET)
  EC50: 12.7 µM
[14]; MTS - ZFL, log10 of IC50, read-out: LogIC50 (converted)
  IC50: 62.8 µM
[14]; MTS - ZFL, read-out: IC50
  IC50: 62.8 µM
[14]; ZFL, 48 h exposure, nominal, log10, read-out: logIC50 (log10 IC50;nom) MTS (converted)
  IC50: 63.1 µM
[14]; ZFL, 48 h exposure, nominal, read-out: IC50;nom MTS
  IC50: 62.8 µM
[15]; AB - ZF4, log10 of IC50, read-out: LogIC50 (converted)
  IC50: 97.5 µM
[15]; AB - ZF4, read-out: IC50
  IC50: 97.5 µM
[15]; ZF4, 48 h exposure, nominal, log10, read-out: logIC50 (log10 IC50;nom) AB (converted)
  IC50: 97.7 µM
[15]; ZF4, 48 h exposure, nominal, read-out: IC50;nom AB
  IC50: 97.5 µM
[16]; ATP - ZF4, log10 of IC50, read-out: LogIC50 (converted)
  IC50: 43.8 µM
[16]; ATP - ZF4, read-out: IC50
  IC50: 43.8 µM
[16]; ZF4, 48 h exposure, nominal, log10, read-out: logIC50 (log10 IC50;nom) ATP (converted)
  IC50: 43.7 µM
[16]; ZF4, 48 h exposure, nominal, read-out: IC50;nom ATP
  IC50: 43.8 µM
[17]; ATP - ZFL, log10 of IC50, read-out: LogIC50 (converted)
  IC50: 20.3 µM
[17]; ATP - ZFL, read-out: IC50
  IC50: 20.3 µM
[17]; ZFL, 48 h exposure, nominal, log10, read-out: logIC50 (log10 IC50;nom) ATP (converted)
  IC50: 20.4 µM
[17]; ZFL, 48 h exposure, nominal, read-out: IC50;nom ATP
  IC50: 20.3 µM
[18]; BCA - ZFL, log10 of IC50, read-out: LogIC50 (converted)
  IC50: 294 µM
[18]; BCA - ZFL, read-out: IC50
  IC50: 294 µM
[18]; ZFL, 48 h exposure, nominal, log10, read-out: logIC50 (log10 IC50;nom) BCA (converted)
  IC50: 295 µM
[18]; ZFL, 48 h exposure, nominal, read-out: IC50;nom BCA
  IC50: 294 µM
